Test results from US11564969B2, “Immunorhelin compounds for intracellular infections” (ISR IMMUNE SYSTEM REGULATION HOLDING AB (PUBL), priority 2017, dated 2023).
Structures can show the parent of a compound that is named as a salt. Where two headings read alike, the source gives them in different places. Square brackets hold non-standard residues; d marks the D form. Peptide text beside a SMILES is read from it. * marks the point of attachment. dHis(τ-Bn) = N[C@H](Cc1cn(Cc2ccccc2)cn1)C(=O)O; d2Nal = N[C@H](Cc1ccc2ccccc2c1)C(=O)O; pGlu = O=C1CC[C@@H](C(=O)O)N1; tBu = CC(C)(C)*

Experiments:
[1] = Solubility analysis in PBS (Analysis Method B); type: physicochemical; conditions: pH 7.4
Procedure: The solubility of compounds of the invention was tested as described in the general methods. Solubility was then graded according to a rating between 1 to 5, where 1 is most soluble and 5 is least soluble.

GnRHR = molecular target: T1, GnRHR (Homo sapiens, UniProt P30968)
T1 sequence (P30968 1-328): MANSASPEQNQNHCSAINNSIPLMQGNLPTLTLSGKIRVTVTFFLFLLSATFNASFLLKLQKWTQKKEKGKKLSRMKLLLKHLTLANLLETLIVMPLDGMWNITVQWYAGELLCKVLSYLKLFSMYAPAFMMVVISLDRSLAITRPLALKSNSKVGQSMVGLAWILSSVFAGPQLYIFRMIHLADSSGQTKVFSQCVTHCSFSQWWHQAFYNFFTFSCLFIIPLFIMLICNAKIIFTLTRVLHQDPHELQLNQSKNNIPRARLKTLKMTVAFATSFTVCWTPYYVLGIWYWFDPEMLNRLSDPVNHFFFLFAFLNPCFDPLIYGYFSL

| Structure (SMILES) | Solubility grading [1] | GNRHR Stimulation at 1 μM (GnRHR; 1000.0) [percentage] | GNRHR Stimulation at 1 μM (GnRHR; 1 μM, calcium assay, CHO-K1 cells) |
| --- | --- | --- | --- |
| CCNC(=O)[C@@H]1CCCN1C(=O)[C@H](CCCNC(=N)N)NC(=O)[C@H](CC(C)C)NC(=O)[C@@H](COC(C)(C)C)NC(=O)[C@H](Cc1c[nH]cn1)NC(=O)[C@H](CO)NC(=O)[C@H](Cc1c[nH]c2ccccc12)NC(=O)[C@H](Cc1c[nH]cn1)NC(=O)[C@@H]1CCC(=O)N1 [Compound 6, pGlu-His-Trp-Ser-His-D-Ser(tBu)-Leu-Arg-Pro-NHEt] ([pGlu]HWSH[dS](tBu)LRP-NHEt) | 1 | 88 | – |
| N=C(N)NCCC[C@H](NC(=O)[C@H](Cc1c[nH]c2ccccc12)NC(=O)[C@@H](Cc1c[nH]c2ccccc12)NC(=O)[C@H](Cc1c[nH]cn1)NC(=O)[C@H](CO)NC(=O)[C@H](Cc1c[nH]c2ccccc12)NC(=O)[C@H](Cc1c[nH]cn1)NC(=O)[C@@H]1CCC(=O)N1)C(=O)N1CCC[C@H]1C(=O)NCC(N)=O [Compound 20, pGlu-His-Trp-Ser-His-D-Trp-Trp-Arg-Pro-NHEt] | 3 | – | – |
| N=C(N)NCCC[C@H](NC(=O)[C@H](Cc1c[nH]c2ccccc12)NC(=O)[C@@H](Cc1c[nH]c2ccccc12)NC(=O)[C@H](Cc1ccc(O)cc1)NC(=O)[C@H](CO)NC(=O)[C@H](Cc1c[nH]c2ccccc12)NC(=O)[C@H](Cc1c[nH]cn1)NC(=O)[C@@H]1CCC(=O)N1)C(=O)N1CCC[C@H]1C(=O)NCC(N)=O [Compound 66, pGlu-His-Trp-Ser-Tyr-D-Trp-Trp-Arg-Pro-Gly-amide] ([pGlu]HWSY[dW]WRPG-NH2) | 5 | 83 | – |
| CCNC(=O)[C@@H]1CCCN1C(=O)[C@H](CCCNC(=N)N)NC(=O)[C@H](Cc1c[nH]c2ccccc12)NC(=O)[C@@H](CC(C)C)NC(=O)[C@H](Cc1c[nH]cn1)NC(=O)[C@H](CO)NC(=O)[C@H](Cc1c[nH]c2ccccc12)NC(=O)[C@H](Cc1c[nH]cn1)NC(=O)[C@@H]1CCC(=O)N1 [Compound 47, pGlu-His-Trp-Ser-His-D-Leu-Trp-Arg-Pro-NHEt] ([pGlu]HWSH[dL]WRP-NHEt) | 1 | 119 | – |
| CCNC(=O)[C@@H]1CCCN1C(=O)[C@H](CCCNC(=N)N)NC(=O)[C@H](CC(C)C)NC(=O)[C@@H](Cc1cn(Cc2ccccc2)cn1)NC(=O)[C@H](Cc1ccc(O)cc1)NC(=O)[C@H](CO)NC(=O)[C@H](Cc1c[nH]c2ccccc12)NC(=O)[C@H](Cc1cnc[nH]1)NC(=O)[C@@H]1CCC(=O)N1 [Histrelin acetate, histrelin, reference compound] | 4 | – | – |
| CCNC(=O)[C@@H]1CCCN1C(=O)[C@H](CCCNC(=N)N)NC(=O)[C@H](CC(C)C)NC(=O)[C@@H](CC(C)C)NC(=O)[C@H](Cc1c[nH]cn1)NC(=O)[C@H](CO)NC(=O)[C@H](Cc1c[nH]c2ccccc12)NC(=O)[C@H](Cc1c[nH]cn1)NC(=O)[C@@H]1CCC(=O)N1 [Compound 42, pGlu-His-Trp-Ser-His-D-Leu-Leu-Arg-Pro-NHEt] ([pGlu]HWSH[dL]LRP-NHEt) | 1 | 102 | – |
| N=C(N)NCCC[C@H](NC(=O)[C@H](Cc1c[nH]c2ccccc12)NC(=O)[C@@H](Cc1ccc2ccccc2c1)NC(=O)[C@H](Cc1c[nH]cn1)NC(=O)[C@H](CO)NC(=O)[C@H](Cc1c[nH]c2ccccc12)NC(=O)[C@H](Cc1c[nH]cn1)NC(=O)[C@@H]1CCC(=O)N1)C(=O)N1CCC[C@H]1C(=O)NCC(N)=O [Compound 27, pGlu-His-Trp-Ser-His-D-Nal-Trp-Arg-Pro-Gly-amide] ([pGlu]HWSH[d2Nal]WRPG-NH2) | 1 | 108 | – |
| CC(C)C[C@H](NC(=O)[C@@H](Cc1ccc2ccccc2c1)NC(=O)[C@H](Cc1c[nH]cn1)NC(=O)[C@H](CO)NC(=O)[C@H](Cc1c[nH]c2ccccc12)NC(=O)[C@H](Cc1c[nH]cn1)NC(=O)[C@@H]1CCC(=O)N1)C(=O)N[C@@H](Cc1ccc(O)cc1)C(=O)N1CCC[C@H]1C(=O)NCC(N)=O [Compound 28, pGlu-His-Trp-Ser-His-D-Nal-Leu-Tyr-Pro-Gly-amide] ([pGlu]HWSH[d2Nal]LYPG-NH2) | 2 | 95 | – |
| CCNC(=O)[C@@H]1CCCN1C(=O)[C@H](CCCNC(=N)N)NC(=O)[C@H](Cc1c[nH]c2ccccc12)NC(=O)[C@@H](Cc1cn(Cc2ccccc2)cn1)NC(=O)[C@H](Cc1ccc(O)cc1)NC(=O)[C@H](CO)NC(=O)[C@H](Cc1c[nH]c2ccccc12)NC(=O)[C@H](Cc1c[nH]cn1)NC(=O)[C@@H]1CCC(=O)N1 [Compound 67, pGlu-His-Trp-Ser-Tyr-D-Bhi-Trp-Arg-Pro-NHEt] ([pGlu]HWSY[dHis(τ-Bn)]WRP-NHEt) | 1 | 117 | – |
| CC(C)C[C@H](NC(=O)[C@@H](Cc1c[nH]c2ccccc12)NC(=O)[C@H](Cc1ccc(O)cc1)NC(=O)[C@H](CO)NC(=O)[C@H](Cc1c[nH]c2ccccc12)NC(=O)[C@H](Cc1c[nH]cn1)NC(=O)[C@@H]1CCC(=O)N1)C(=O)N[C@@H](Cc1ccc(O)cc1)C(=O)N1CCC[C@H]1C(=O)NCC(N)=O [Compound 14, pGlu-His-Trp-Ser-Tyr-D-Trp-Leu-Tyr-Pro-Gly-amide] ([pGlu]HWSY[dW]LYPG-NH2) | 4 | – | – |
| CC(C)C[C@H](NC(=O)[C@@H](Cc1c[nH]c2ccccc12)NC(=O)[C@H](Cc1c[nH]cn1)NC(=O)[C@H](CO)NC(=O)[C@H](Cc1c[nH]c2ccccc12)NC(=O)[C@H](Cc1c[nH]cn1)NC(=O)[C@@H]1CCC(=O)N1)C(=O)N[C@@H](CCCNC(=N)N)C(=O)N1CCC[C@H]1C(=O)NCC(N)=O [Compound 68, pGlu-His-Trp-Ser-His-D-Trp-Leu-Arg-Pro-Gly-amide] ([pGlu]HWSH[dW]LRPG-NH2) | 1 | 86 | – |
| CCNC(=O)[C@@H]1CCCN1C(=O)[C@H](CCCNC(=N)N)NC(=O)[C@H](CC(C)C)NC(=O)[C@@H](Cc1cn(Cc2ccccc2)cn1)NC(=O)[C@H](Cc1ccc(O)cc1)NC(=O)[C@H](CO)NC(=O)[C@H](Cc1c[nH]c2ccccc12)NC(=O)[C@H](Cc1cnc[nH]1)NC(=O)[C@@H]1CCC(=O)N1 [Histrelin TFA, histrelin, reference compound] | 2 | – | – |
| CCNC(=O)[C@@H]1CCCN1C(=O)[C@H](Cc1ccc(O)cc1)NC(=O)[C@H](CC(C)C)NC(=O)[C@@H](COC(C)(C)C)NC(=O)[C@H](Cc1ccc(O)cc1)NC(=O)[C@H](CO)NC(=O)[C@H](Cc1c[nH]c2ccccc12)NC(=O)[C@H](Cc1c[nH]cn1)NC(=O)[C@@H]1CCC(=O)N1 [Compound 9, pGlu-His-Trp-Ser-Tyr-D-Ser(tBu)-Leu-Tyr-Pro-NHEt] ([pGlu]HWSY[dS](tBu)LYP-NHEt) | 1 | 78 | – |
| CC(C)C[C@H](NC(=O)[C@@H](Cc1ccc2ccccc2c1)NC(=O)[C@H](Cc1ccc(O)cc1)NC(=O)[C@H](CO)NC(=O)[C@H](Cc1c[nH]c2ccccc12)NC(=O)[C@H](Cc1c[nH]cn1)NC(=O)[C@@H]1CCC(=O)N1)C(=O)N[C@@H](CCCNC(=N)N)C(=O)N1CCC[C@H]1C(=O)NCC(N)=O [Naferelin acetate, nafarelin, reference compound] | 2 | – | – |
| CCNC(=O)[C@@H]1CCCN1C(=O)[C@H](CCCNC(=N)N)NC(=O)[C@H](CC(C)C)NC(=O)[C@@H](CC(C)C)NC(=O)[C@H](Cc1ccc(O)cc1)NC(=O)[C@H](CO)NC(=O)[C@H](Cc1c[nH]c2ccccc12)NC(=O)[C@H](Cc1c[nH]cn1)NC(=O)[C@@H]1CCC(=O)N1 [Leuprorelin acetate, leuprorelin, reference compound] | 2 | – | – |
| CC(C)C[C@H](NC(=O)[C@@H](Cc1ccc2ccccc2c1)NC(=O)[C@H](Cc1ccc(O)cc1)NC(=O)[C@H](CO)NC(=O)[C@H](Cc1c[nH]c2ccccc12)NC(=O)[C@H](Cc1c[nH]cn1)NC(=O)[C@@H]1CCC(=O)N1)C(=O)N[C@@H](CCCNC(=N)N)C(=O)N1CCC[C@H]1C(=O)NCC(N)=O [Naferelin TFA, nafarelin, reference compound] | 1 | – | – |
| CCNC(=O)[C@@H]1CCCN1C(=O)[C@H](CCCNC(=N)N)NC(=O)[C@H](CC(C)C)NC(=O)[C@@H](CC(C)C)NC(=O)[C@H](Cc1ccc(O)cc1)NC(=O)[C@H](CO)NC(=O)[C@H](Cc1c[nH]c2ccccc12)NC(=O)[C@H](Cc1c[nH]cn1)NC(=O)[C@@H]1CCC(=O)N1 [Leuprorelin TFA, leuprorelin, reference compound] | 1 | – | – |
| CC(C)C[C@H](NC(=O)[C@@H](Cc1c[nH]c2ccccc12)NC(=O)[C@H](Cc1c[nH]cn1)NC(=O)[C@H](CO)NC(=O)[C@H](Cc1c[nH]c2ccccc12)NC(=O)[C@H](Cc1c[nH]cn1)NC(=O)[C@@H]1CCC(=O)N1)C(=O)N[C@@H](Cc1ccc(O)cc1)C(=O)N1CCC[C@H]1C(=O)NCC(N)=O [Compound 16, pGlu-His-Trp-Ser-His-D-Trp-Leu-Tyr-Pro-Gly-amide] ([pGlu]HWSH[dW]LYPG-NH2) | 2 | – | – |
| CC(C)C[C@H](NC(=O)[C@@H](Cc1ccc2ccccc2c1)NC(=O)[C@H](Cc1ccc(O)cc1)NC(=O)[C@H](CO)NC(=O)[C@H](Cc1c[nH]c2ccccc12)NC(=O)[C@H](Cc1c[nH]cn1)NC(=O)[C@@H]1CCC(=O)N1)C(=O)N[C@@H](CCCNC(=N)N)C(=O)N1CCC[C@H]1C(=O)NCC(N)=O [Nafarelin, nafarelin, reference compound] | – | – | 100 (n = 2) percentage |
